Among the data in patent EP0443862A1, “Triamine derivatives and their acid-addition salts” (SUMITOMO PHARMACEUTICALS COMPANY, LIMITED, priority 1990, dated 1991) are ED50 values, retold here.

In the experiment the test system is NMDA-induced tonic convulsion. The experiment in a line: Inhibition of NMDA-induced tonic convulsion in mice. Conditions: Mus musculus, ip, 0.5 h, i.p., 30 minutes before NMDA injected intracerebroventicularly, read-out: Inhibition potency of NMDA-induced tonic convulsion (ED50; mg/kg, i.p.). Format: in vivo. The procedure:
A test compound was injected intraperitoneally in mice. After 30 minutes from the administration, NMDA was injected intracerebroventicularly, and it was observed whether there was a tonic convulsion. ED₅₀ (mg/kg, i.p.) was calculated out from the inhibition rates.
As usually defined, the ED50 is the midpoint of the dose-response relation. On to `c1cnc2c(NCCNCCNc3cccc4cccnc34)cccc2c1` [Example 1], for which the ED50 was 16.4 mg/kg. The same measure for `c1ccc2c(NCCNCCNc3cccc4ccccc34)cccc2c1` [Example 2]: over 30 mg/kg; for `c1cc2c(c(NCCNCCNc3cccc4c3CCCC4)c1)CCCC2` [Example 3]: over 30 mg/kg. As to `c1ccc2c(NCCCNCCNc3cccc4ccccc34)cccc2c1` [Example 4], the ED50 is over 30 mg/kg. As to `Clc1ccc(NCCNCCNc2ccc(Cl)c3ccccc23)c2ccccc12` [Example 5], the ED50 stood at 24.8 mg/kg.
